In ChEMBL document CHEMBL1150977, “A quantitative analysis of kinase inhibitor selectivity” (Nat Biotechnol, 2008):
pKd: −log10 of the molar value.

How the values were obtained:
[1] = target: T1, Serine/threonine-protein kinase tousled-like 1 (Homo sapiens, UniProt Q9UKI8)
T1 sequence (Q9UKI8 whole entry): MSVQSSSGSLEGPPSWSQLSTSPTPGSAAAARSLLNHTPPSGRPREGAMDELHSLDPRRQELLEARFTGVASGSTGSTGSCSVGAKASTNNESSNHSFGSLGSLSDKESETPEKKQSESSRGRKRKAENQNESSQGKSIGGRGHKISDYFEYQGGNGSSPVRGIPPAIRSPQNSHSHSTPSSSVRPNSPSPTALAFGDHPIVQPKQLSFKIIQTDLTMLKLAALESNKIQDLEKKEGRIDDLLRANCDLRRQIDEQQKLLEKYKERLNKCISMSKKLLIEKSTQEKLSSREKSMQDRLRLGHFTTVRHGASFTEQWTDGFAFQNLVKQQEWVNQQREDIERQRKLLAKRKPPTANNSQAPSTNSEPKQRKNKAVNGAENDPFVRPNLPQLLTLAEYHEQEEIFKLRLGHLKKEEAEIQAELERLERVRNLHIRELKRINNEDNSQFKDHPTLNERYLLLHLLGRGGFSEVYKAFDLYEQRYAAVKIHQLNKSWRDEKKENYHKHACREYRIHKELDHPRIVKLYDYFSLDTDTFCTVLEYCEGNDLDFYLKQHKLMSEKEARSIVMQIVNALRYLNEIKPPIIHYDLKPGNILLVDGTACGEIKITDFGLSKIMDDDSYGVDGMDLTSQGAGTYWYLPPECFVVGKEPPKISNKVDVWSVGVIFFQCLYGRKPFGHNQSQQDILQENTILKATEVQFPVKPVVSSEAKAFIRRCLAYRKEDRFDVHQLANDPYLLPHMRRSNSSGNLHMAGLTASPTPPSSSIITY

[2] = target: Mitogen-activated protein kinase kinase kinase 10 (Homo sapiens, UniProt Q02779)
Chain of Mitogen-activated protein kinase kinase kinase 10 (Q02779 whole entry): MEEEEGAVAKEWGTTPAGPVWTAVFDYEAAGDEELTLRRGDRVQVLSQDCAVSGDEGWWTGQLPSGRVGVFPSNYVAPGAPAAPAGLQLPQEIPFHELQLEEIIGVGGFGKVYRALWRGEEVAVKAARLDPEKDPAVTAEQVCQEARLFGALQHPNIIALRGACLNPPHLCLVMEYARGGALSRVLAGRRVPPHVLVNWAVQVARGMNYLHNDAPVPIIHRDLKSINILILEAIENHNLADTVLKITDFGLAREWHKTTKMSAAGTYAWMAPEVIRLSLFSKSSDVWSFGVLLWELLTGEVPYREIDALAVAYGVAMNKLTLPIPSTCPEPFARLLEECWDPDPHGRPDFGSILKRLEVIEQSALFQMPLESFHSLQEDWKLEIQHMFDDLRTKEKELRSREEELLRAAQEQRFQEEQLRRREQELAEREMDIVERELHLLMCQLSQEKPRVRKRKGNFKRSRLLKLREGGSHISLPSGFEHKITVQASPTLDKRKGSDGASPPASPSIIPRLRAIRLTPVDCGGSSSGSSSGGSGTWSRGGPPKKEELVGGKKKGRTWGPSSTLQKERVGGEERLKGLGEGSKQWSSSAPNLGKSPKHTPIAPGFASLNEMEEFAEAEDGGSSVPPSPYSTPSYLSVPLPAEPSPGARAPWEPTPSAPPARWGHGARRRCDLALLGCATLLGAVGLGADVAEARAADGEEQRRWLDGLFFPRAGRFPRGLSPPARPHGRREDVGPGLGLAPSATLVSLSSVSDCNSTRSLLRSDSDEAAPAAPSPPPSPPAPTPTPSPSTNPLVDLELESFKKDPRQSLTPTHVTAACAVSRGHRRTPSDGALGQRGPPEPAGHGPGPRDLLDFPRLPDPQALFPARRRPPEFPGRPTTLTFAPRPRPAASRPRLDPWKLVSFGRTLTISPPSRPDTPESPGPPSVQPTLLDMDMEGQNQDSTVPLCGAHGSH

[3] = target: T2, Tyrosine-protein kinase JAK3 (Homo sapiens, UniProt P52333)
T2 sequence (P52333 whole entry): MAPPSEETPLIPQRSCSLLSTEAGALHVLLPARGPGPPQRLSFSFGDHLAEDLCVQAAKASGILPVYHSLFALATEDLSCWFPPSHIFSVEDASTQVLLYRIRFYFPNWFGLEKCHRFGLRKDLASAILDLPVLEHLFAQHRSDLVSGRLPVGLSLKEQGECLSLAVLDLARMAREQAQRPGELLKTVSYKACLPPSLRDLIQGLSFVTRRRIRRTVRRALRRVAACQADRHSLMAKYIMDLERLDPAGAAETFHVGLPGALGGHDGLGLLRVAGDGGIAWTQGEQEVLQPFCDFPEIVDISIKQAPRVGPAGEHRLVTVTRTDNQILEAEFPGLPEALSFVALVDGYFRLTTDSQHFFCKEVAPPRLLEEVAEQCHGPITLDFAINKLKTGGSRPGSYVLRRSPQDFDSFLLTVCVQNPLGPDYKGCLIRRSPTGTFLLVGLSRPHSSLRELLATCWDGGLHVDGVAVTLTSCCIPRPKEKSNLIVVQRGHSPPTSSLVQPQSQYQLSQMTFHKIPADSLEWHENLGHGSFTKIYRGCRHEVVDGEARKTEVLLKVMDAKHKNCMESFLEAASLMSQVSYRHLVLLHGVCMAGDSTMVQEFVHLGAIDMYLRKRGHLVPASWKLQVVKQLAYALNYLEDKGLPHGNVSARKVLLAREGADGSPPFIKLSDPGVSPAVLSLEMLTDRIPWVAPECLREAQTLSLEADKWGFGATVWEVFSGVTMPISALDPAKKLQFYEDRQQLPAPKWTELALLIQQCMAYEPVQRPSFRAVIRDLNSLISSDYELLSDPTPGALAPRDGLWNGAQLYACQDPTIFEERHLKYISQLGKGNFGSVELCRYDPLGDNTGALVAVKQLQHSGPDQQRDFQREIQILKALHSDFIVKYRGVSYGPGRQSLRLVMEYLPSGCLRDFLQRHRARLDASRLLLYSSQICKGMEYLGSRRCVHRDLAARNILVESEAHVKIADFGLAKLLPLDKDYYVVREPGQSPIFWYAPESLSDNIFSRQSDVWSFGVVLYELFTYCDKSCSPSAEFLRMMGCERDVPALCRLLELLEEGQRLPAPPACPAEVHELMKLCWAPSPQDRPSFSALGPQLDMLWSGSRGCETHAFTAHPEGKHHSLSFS

[4] = target: RAC-alpha serine/threonine-protein kinase (Homo sapiens, UniProt P31749)
Chain of RAC-alpha serine/threonine-protein kinase (P31749 whole entry): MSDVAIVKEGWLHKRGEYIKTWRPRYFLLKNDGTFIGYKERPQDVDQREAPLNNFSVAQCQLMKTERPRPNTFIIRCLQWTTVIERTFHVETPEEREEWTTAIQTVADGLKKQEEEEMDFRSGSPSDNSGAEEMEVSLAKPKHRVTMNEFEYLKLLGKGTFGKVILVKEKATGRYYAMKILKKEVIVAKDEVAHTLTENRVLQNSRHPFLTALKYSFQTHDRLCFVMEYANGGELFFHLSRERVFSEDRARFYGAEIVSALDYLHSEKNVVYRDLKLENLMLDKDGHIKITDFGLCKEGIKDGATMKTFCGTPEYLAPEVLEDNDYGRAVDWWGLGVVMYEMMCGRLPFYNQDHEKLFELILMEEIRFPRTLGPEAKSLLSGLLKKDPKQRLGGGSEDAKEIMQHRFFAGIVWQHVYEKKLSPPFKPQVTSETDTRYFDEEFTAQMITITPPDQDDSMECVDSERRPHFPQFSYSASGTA

[5] = target: Cyclin-dependent kinase 18 (Homo sapiens, UniProt Q07002)
Chain of Cyclin-dependent kinase 18 (Q07002 whole entry): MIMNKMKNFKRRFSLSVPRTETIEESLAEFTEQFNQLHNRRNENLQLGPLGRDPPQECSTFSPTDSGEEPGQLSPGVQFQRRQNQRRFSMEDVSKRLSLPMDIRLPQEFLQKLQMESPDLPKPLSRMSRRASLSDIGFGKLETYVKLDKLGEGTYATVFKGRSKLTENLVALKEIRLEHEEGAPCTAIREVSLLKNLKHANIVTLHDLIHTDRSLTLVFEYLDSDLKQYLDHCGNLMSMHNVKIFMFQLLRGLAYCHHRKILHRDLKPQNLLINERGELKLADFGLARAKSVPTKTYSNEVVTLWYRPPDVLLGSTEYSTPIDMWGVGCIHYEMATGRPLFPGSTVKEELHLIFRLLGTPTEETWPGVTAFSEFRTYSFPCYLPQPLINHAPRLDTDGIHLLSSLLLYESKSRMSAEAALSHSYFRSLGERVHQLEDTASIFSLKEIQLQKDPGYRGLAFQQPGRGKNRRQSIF

[6] = target: Ribosomal protein S6 kinase alpha-6 (Homo sapiens, UniProt Q9UK32)
[7] = target: T3, TGF-beta receptor type-1 (Homo sapiens, UniProt P36897)
T3 sequence (P36897 whole entry): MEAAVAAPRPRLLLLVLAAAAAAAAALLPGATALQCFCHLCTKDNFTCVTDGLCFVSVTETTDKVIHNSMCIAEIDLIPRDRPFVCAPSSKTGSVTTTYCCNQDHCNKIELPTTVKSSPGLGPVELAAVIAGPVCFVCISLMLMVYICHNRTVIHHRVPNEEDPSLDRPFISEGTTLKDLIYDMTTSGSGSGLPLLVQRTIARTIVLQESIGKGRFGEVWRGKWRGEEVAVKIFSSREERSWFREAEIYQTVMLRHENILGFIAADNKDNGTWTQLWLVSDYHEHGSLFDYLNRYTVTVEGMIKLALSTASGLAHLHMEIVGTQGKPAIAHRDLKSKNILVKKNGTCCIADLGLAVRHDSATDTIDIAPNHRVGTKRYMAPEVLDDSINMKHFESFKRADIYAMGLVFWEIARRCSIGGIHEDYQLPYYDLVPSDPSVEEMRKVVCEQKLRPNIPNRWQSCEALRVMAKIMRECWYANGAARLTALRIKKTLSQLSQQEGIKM

[8] = target: Serine/threonine-protein kinase PAK 5 (Homo sapiens, UniProt Q9P286)
[9] = target: Tyrosine-protein kinase JAK2 (Homo sapiens, UniProt O60674)
Chain of Tyrosine-protein kinase JAK2 (O60674 whole entry): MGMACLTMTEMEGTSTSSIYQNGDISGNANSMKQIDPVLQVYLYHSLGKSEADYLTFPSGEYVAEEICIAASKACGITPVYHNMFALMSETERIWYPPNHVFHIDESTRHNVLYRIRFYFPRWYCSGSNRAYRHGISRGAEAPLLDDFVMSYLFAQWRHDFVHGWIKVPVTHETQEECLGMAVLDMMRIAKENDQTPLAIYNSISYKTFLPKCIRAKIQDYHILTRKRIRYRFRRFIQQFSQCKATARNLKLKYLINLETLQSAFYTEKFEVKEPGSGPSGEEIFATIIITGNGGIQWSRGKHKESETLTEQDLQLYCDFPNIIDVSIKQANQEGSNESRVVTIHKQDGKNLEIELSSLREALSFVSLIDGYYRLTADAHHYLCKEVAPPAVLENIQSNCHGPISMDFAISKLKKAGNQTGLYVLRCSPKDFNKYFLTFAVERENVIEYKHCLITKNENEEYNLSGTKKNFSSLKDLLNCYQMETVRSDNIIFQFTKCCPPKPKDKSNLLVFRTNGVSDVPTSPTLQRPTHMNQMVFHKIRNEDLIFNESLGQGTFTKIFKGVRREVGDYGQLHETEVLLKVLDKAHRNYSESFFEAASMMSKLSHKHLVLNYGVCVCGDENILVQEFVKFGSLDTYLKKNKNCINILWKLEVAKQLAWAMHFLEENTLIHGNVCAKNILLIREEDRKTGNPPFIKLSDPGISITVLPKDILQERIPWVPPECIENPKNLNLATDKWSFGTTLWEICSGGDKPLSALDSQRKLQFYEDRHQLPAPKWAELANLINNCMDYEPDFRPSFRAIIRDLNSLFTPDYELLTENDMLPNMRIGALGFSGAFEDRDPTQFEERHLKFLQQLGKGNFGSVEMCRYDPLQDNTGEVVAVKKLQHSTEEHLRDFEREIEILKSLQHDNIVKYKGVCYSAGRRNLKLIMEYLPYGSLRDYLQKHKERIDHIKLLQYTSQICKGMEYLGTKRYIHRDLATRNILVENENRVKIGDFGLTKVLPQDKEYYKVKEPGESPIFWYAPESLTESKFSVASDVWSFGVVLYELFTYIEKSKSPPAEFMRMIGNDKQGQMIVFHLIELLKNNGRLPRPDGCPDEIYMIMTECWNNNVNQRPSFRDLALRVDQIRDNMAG

[10] = target: TRAF2 and NCK-interacting protein kinase (Homo sapiens, UniProt Q9UKE5)
[11] = target: Phosphatidylinositol 4,5-bisphosphate 3-kinase catalytic subunit alpha isoform (Homo sapiens, UniProt P42336, E545K)
Chain of Phosphatidylinositol 4,5-bisphosphate 3-kinase catalytic subunit alpha isoform (P42336 whole entry E545K, canonical isoform): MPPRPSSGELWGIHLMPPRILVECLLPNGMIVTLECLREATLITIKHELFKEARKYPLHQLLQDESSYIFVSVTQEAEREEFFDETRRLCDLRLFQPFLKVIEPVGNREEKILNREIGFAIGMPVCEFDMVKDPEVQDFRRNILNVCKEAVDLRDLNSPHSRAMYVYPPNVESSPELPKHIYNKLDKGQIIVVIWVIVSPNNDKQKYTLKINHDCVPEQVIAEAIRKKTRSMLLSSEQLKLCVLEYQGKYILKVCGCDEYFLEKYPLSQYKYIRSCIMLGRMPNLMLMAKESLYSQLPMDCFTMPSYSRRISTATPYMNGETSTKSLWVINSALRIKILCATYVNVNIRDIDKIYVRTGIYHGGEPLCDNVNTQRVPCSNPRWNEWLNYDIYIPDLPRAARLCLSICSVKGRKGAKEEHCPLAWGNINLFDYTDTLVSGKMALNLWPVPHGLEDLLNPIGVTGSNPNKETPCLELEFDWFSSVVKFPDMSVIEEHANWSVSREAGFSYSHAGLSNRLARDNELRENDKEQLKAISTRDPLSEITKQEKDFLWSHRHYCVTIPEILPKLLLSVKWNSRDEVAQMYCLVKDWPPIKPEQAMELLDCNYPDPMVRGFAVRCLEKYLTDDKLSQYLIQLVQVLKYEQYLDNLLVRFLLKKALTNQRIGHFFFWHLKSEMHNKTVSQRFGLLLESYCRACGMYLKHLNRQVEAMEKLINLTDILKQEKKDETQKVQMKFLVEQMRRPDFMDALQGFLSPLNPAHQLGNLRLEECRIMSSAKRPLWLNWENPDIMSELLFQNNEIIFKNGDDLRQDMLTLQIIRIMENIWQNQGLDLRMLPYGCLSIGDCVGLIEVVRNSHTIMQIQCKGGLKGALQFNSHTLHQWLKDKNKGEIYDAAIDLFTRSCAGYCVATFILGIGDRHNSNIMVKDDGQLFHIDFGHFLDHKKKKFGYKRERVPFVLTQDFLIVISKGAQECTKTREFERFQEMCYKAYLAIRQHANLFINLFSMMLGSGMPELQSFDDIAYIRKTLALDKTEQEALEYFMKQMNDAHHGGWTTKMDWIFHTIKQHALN

[12] = target: Serine/threonine-protein kinase B-raf (Homo sapiens, UniProt P15056)
Chain of Serine/threonine-protein kinase B-raf (P15056 whole entry): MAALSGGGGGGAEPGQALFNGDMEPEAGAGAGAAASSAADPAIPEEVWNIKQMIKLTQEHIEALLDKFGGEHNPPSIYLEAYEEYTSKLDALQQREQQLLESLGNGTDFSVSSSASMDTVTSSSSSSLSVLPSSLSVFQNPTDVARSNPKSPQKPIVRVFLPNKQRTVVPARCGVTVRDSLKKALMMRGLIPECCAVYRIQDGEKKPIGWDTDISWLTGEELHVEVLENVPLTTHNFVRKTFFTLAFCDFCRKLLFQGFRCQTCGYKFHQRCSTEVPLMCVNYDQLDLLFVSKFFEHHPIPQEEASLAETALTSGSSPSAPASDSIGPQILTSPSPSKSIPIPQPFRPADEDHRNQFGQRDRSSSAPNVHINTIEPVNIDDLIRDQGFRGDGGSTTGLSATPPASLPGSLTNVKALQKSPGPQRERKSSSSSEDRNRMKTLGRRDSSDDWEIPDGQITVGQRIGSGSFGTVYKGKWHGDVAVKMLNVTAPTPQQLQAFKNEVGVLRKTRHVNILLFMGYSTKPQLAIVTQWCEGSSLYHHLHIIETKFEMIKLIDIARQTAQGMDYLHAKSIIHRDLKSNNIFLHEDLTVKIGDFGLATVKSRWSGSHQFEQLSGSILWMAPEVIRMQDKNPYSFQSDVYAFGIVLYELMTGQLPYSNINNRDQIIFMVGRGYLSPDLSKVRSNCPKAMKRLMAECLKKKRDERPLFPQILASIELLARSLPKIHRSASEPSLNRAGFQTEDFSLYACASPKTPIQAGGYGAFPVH

| Structure (SMILES) | pKd [1] | pKd [2] | pKd [3] | pKd [4] | pKd [5] | pKd [6] | pKd [7] | pKd [8] | pKd [9] | pKd [10] | pKd [11] | pKd [12] |
| --- | --- | --- | --- | --- | --- | --- | --- | --- | --- | --- | --- | --- |
| COCC(=O)NC/C=C/c1ccc2ncnc(Nc3ccc(Oc4ccc(C)nc4)c(C)c3)c2c1 [CP-724714] | < 5.00 | < 5.00 | < 5.00 | < 5.00 | < 5.00 | < 5.00 | < 5.00 | < 5.00 | < 5.00 | < 5.00 |  |  |
| CCOc1cc2ncc(C#N)c(Nc3ccc(F)c(Cl)c3)c2cc1NC(=O)/C=C/CN(C)C [PELITINIB] | < 5.00 | < 5.00 | 7.60 | < 5.00 | < 5.00 | < 5.00 | < 5.00 | < 5.00 | < 5.00 |  | < 5.00 | < 5.00 |
| NC(=O)c1ccc(-c2nc(-c3ccc4c(c3)OCO4)c(-c3ccccn3)[nH]2)cc1 [SB-431542] | < 5.00 | < 5.00 | < 5.00 | < 5.00 | < 5.00 |  |  | < 5.00 | < 5.00 | < 5.00 | < 5.00 |  |
| Nc1nc(Nc2ccc(S(N)(=O)=O)cc2)nn1C(=O)c1c(F)cccc1F [JNJ-7706621] |  |  |  | < 5.00 |  |  | < 5.00 |  |  | < 5.00 | < 5.00 | < 5.00 |
| Oc1ccc(-c2nc(-c3ccncc3)c(-c3ccc(F)cc3)[nH]2)cc1 [SB-202190] | < 5.00 | < 5.00 | < 5.00 | < 5.00 | < 5.00 | 6.57 | < 5.00 | < 5.00 | < 5.00 | 5.80 | < 5.00 | 5.32 |
